This test in a line: Inhibition of recombinant human Sphk2 expressed in yeast strain KYA1 assessed as increase in yeast growth measured after 24 hrs.

Structures are written as SMILES. pEC50: −log10 of the molar value.

What is called pEC50 is the negative decadic logarithm of the EC50, by convention in mol/L. `CCCCCCCCCn1ccc2cc(-c3noc([C@@H]4CCCN4C(=N)N)n3)ccc21`: the pEC50 was 6.77.
